Each block holds one compound with its values, some of them ahead of it.
Columns and labels:
c-Met [1] = target: T1, c-Met (Homo sapiens, UniProt P08581); assay: c-Met activation in HGF-treated A431 cells (proximity assay); type: cell-based; settings: A431 epidermoid carcinoma cells, FIG. 3
Protocol: (§1) The slide was incubated for two hours at room temperature. • 4) After six washes with TBS-Tween, 80 μl of detection antibodies for the proximity assay diluted in TBS-Tween/2% BSA/1% FBS was added to the slides. The incubation was for 2 hours at room temperature. • a) As a non-limiting example, the detection antibodies can comprise the following: (i) an anti-c-Met monoclonal antibody that is directly conjugated to glucose oxidase (GO); and (ii) a monoclonal antibody recognizing phosphorylated c-Met that is directly conjugated to horseradish peroxidase (HRP). • b) Alternatively, the detection step can utilize a biotin-conjugate of the monoclonal antibody recognizing phosphorylated c-Met. In these instances, after six washes, an additional sequential step of incubation with streptavidin-HRP for 1 hour is included. • c) Alternatively, the detection step can utilize an oligonucleotide-mediated glucose oxidase (GO) conjugate of the anti-c-Met antibody. […]
(§2) The multiplexed protein microarray platform described herein utilizes the formation of a unique immuno-complex requiring the co-localization of two detector enzyme-conjugated-antibodies once target proteins are captured on the microarray surface. […] The detection and quantification of as few as ˜2-3×10^4 phosphorylation events is routinely achieved by this method, bringing its detection to a “single” cell level. […]

HER2 [2] = assay: HER2 activation in HGF-treated A431 cells (proximity assay); type: cell-based; settings: A431 epidermoid carcinoma cells, FIG. 3
Protocol: as §1, §2

c-Met [3] = target: T1, c-Met; assay: c-Met activation in HGF-treated HCC827 cells (proximity assay); type: cell-based; settings: HCC827 lung cancer cells, FIG. 4
From the text: (§3) The multiplexed protein microarray platform described herein utilizes the formation of a unique immuno-complex requiring the co-localization of two detector enzyme-conjugated-antibodies once target proteins are captured on the microarray surface. The channeling events between two detector enzymes (glucose oxidase (GO) and horseradish peroxidase (HRP)) in proximity enables the profiling of a receptor tyrosine kinase (RTK) such as c-Met with extreme sensitivity. […] In particular, the multiplexed proximity assay is based on (1) a multiplexed protein microarray platform combined with (2) a triple-antibody-enzyme channeling signal amplification process. The unique and novel design is provided by the triple-antibody enzyme approach that confers ultra-high sensitivity while preserving specificity: • (1) The selected target is captured by target-specific antibodies printed in serial dilutions on a microarray surface. […] The detection and quantification of as few as ˜2-3×10^4 phosphorylation events is routinely achieved by this method, bringing its detection to a “single” cell level. In certain instances, this collaborative immunoassay configuration can be further applied to investigate protein interactions and activations.

HER2 [4] = assay: HER2 activation in HGF-treated HCC827 cells (proximity assay); type: cell-based; settings: HCC827 lung cancer cells, FIG. 4
From the text: as §3

human xenograft models = settings: dosed orally; cited from earlier work
[5] = early Phase I; cited from earlier work
c-Met [6] = target: T1, c-Met; settings: cited from earlier work
[7] = in vivo; cited from earlier work
CYP450 = settings: cited from earlier work

T1 sequence (P08581 25-1390): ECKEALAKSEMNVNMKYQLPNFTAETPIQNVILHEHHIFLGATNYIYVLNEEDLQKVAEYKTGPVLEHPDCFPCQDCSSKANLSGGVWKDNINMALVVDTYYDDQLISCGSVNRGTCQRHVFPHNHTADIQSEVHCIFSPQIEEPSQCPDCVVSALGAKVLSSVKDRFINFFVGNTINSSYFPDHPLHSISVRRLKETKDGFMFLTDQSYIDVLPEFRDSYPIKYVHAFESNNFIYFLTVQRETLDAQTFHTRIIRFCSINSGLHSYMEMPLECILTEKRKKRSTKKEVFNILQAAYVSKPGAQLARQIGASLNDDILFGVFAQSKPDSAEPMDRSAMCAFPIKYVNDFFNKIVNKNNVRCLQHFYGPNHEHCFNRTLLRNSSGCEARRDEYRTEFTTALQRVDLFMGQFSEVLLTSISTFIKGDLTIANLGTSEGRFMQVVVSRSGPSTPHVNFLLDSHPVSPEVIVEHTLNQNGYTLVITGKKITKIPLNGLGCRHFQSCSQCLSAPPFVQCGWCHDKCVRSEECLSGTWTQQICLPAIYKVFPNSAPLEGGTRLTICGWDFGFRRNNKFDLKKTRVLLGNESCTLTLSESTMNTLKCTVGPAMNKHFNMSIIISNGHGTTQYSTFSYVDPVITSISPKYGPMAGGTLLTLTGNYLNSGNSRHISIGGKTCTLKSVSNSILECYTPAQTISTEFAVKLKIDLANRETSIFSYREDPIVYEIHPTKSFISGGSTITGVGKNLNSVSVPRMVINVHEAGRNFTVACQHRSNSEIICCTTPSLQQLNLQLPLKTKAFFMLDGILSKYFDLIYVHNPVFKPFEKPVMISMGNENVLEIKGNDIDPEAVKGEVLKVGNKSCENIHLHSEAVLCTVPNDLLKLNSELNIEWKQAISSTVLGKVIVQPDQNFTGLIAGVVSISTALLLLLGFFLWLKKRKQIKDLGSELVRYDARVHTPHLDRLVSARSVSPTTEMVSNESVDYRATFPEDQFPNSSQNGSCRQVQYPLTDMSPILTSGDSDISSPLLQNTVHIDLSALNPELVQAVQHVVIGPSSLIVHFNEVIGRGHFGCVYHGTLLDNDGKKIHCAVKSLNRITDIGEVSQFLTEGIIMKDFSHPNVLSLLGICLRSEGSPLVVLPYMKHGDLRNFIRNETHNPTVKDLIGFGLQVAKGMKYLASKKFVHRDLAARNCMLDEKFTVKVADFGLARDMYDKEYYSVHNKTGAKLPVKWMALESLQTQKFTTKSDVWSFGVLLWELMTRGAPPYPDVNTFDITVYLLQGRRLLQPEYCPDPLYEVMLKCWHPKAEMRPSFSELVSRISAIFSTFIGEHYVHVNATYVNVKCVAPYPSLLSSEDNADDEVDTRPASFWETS

c-Met phosphorylation (c-Met [1]): stimulated
increase of c-Met phosphorylation (c-Met [3]): about 4 fold
Compound: HGF: c-Met ligand, hepatocyte growth factor, a multidomain glycoprotein
HER2 phosphorylation (HER2 [2]): slightly decreased
HER2 phosphorylation (HER2 [4]): not affected

Compound: Cn1cc(-c2ccc3nnc(Sc4ccc5ncccc5c4)n3n2)cn1 [SGX523]
antitumor activity (human xenograft models): potent antitumor activity
toxicity (human xenograft models): no overt toxicity

Compound: CN(C[C@@H]1COCCO1)S(=O)(=O)Nc1ccc2ccc3ncc(-c4cnn(C)c4)cc3c(=O)c2c1 [MK-2461]
tolerability [5]: well tolerated

Compound: MetMAb: humanized, monovalent, antagonistic anti-c-Met antibody derived from the agonistic monoclonal antibody 5D5
binding to c-Met (c-Met [6]): high affinity

Compound: COc1cc2c(Oc3ccc(NC(=O)C4(C(=O)Nc5ccc(F)cc5)CC4)cc3F)ccnc2cc1OCCCN1CCOCC1 [XL880]
oral bioavailability [7]: good
CYP450 substrate / inhibitor / inducer (CYP450): substrate, but not an inhibitor or inducer
